According to patent publication US6841577B2, “Pesticidal activity of plant essential oils and their constituents” (Ecosmart Technologies, Inc., priority 1999, dated 2005):

How the values were obtained:
[1] = tested on: heart of American cockroach (octopamine receptors); test: Heartbeat after application to thoracic segment; assay type: in vivo; conditions: mean ±SD of three roaches; for Heart beat/30 sec 30 min after treatment: 300 μg applied to thoracic segment; for Heart beat/30 sec before treatment: baseline of the same roaches
Method: To further establish the effect of the purified naturally occurring plant essential oils and/or their constituents on the American cockroach, a 300 μg amount of the chemical was applied to the thoracic segment of an intact and alive American cockroach. The heart beats/30 seconds was measured. The heart of the cockroach is known to have a high concentration of octopamine receptors and the heart beat is considered an important measurement to indicate the effect of the applied chemicals to the octopamine receptors.

American cockroach [2] = test: Cross walk jar test on pre-treated surface; assay type: in vivo
Method: In the test, a known amount of the test material was dissolved in a known volume of acetone and applied to small jars and all inner bottom surfaces were covered. The bottom surface of each jar is approximately 250 cm^2. One hour after the acetone had completely evaporated, five American cockroaches were introduced to each jar. Control jars were treated exactly as above but with the known amount of acetone only.
The results of the “cross walk” jar tests are in Table 8 in which the “4-blend” was dispersed as an aerosol and a dust in the jar.
In this test, the acetone solution of the test material was placed in the jar and the roach inserted into the jar after the acetone had evaporated.
Mortality was measured 24 hours after exposure.
The “4-blend” and the individual constituents of the “4-blend” were tested using 10 cockroaches for each “cross walk” treatment. In addition, pyrethrins were tested separately and mixed with the various components.
A concentration of 100 mg/jar was used for each individual alone. In the co-treatment experiment without pyrethrins, 20 mg/jar for each chemical was used. In the cotreatment experiment with pyrethrins, 20 mg/jar for the naturally occurring plant material was used. Pyrethrins was used at 2 mg/jar. […] It was noted above that the mortality is dependent upon concentration. […] Some synergism is found between pyrethrins and either α-terpineol or benzyl alcohol.

[3] = tested on: 2nd instar green peach aphid nymphs; test: Cabbage leaf disc bioassay; assay type: in vivo
Method: A bioassay similar to that for S. litura larvae was used for additional larvae. Cabbage leaf discs were dipped in emulsified aqueous solutions, diluted 1:200 in water, on which 2nd instar green peach aphid nymphs were placed. For each treatment there was 10 aphids per disc with 5 replicates; each experiment was replicated in time (successive days) from 3-5 times. After 24 hours, aphids were reported as being (1) on the leaf disc and feeding; (2) alive, but walking off the disc; or (3) dead. In the field, aphids which cease feeding and abandon a host plant are very unlikely to survive.

[4] = tested on: octopamine receptor sites; test: 3H-OA binding to ventral nerve cord / synaptosomal membrane protein; parameters: species or system American cockroach (Periplaneta americana); conditions: for dpm 3H-OA/500 μg protein: Table 2; for cpm 3H-OA/500 μg protein: Table 3; for classification with respect to octopamine receptor sites (OAR): based on the binding data of Tables 1-3
Method: Different concentrations of unlabeled octopamine (OA) (20, 30, 40, 50, 60, 100 ng) were tested on the binding activity as a positive control. Test chemicals were dissolved in acetone before the assay. Different concentrations of the test chemicals were added directly to the protein preparation from ventral nerve cord. The same amount of solvent (1 μl 0.1%) were added to the control samples. All assays with test chemicals were run in the presence and absence of 50 ng OA. All chemicals were added to the protein extract 20 min prior the addition of radio labeled ^3H-OA(100,000 cpm/sample). After 30 min at 24° C. of the addition of ^3H-OA, the reaction was stopped by the addition of ice-cold Tris buffer, and the samples were filtered through GF/C membrane using water vacuum. After two washes each with 5 ml Tris buffer, the membrane was removed, air dried and the radioactivity was counted in 4 ml liquid scintillation solution. The specific binding was calculated as the difference between the values in the presence and absence of unlabeled OA. All data are calculated as the mean±standard deviation of 5 assays.
Additional tests were conducted on radio labeled octopamine using other purified naturally occurring materials as given in Tables 2 and 3.

American cockroach [5] = test: Lethal effect of injected test chemicals; assay type: in vivo; conditions: dead/10
Method: Further studies were conducted to determine the LD 50 of purified naturally occurring plant essential oils and/or their constituents. […] Ten roaches per dose were used. Another group of ten roaches received the same volume of vehicle only (0.5 μl) and used as a control group. Mortality was recorded 24, 48, and 72 hours after exposure.

[6] = 500 ng/ml, solvent control 1101 ± 120
[7] = 1000 ng/ml, solvent control 930 ± 89
[8] = 500 ng/ml, solvent control 1385 ± 101
[9] = 1000 ng/ml, solvent control 1915 ± 110

## CC(=O)OCc1ccccc1 [Benzyl Acetate]
[1]
  Heart beat/30 sec 30 min after treatment: 42 ± 1 beat/30 sec
  Heart beat/30 sec before treatment: 45 ± 2 beat/30 sec

## OCc1ccccc1 [Benzyl Alcohol]
[1]
  Heart beat/30 sec 30 min after treatment: 39 ± 2 beat/30 sec
  Heart beat/30 sec before treatment: 45 ± 3 beat/30 sec
American cockroach [2]; Periplaneta americana, 24 h
  mortality at 100 mg: 0%
American cockroach [2]; Periplaneta americana, 48 h
  mortality at 100 mg: 20%
American cockroach [2]; Periplaneta americana, 72 h
  mortality at 100 mg: 40%
American cockroach [2]; Periplaneta americana, inhaled or nasal
  mortality at 10 mg: 100%
[3]; 1:200 dilution
  activity on green peach aphid nymphs, in words: relatively inactive
[3]; diluted 1:200 in water, after 24 hours, n = 250, Table 16, control 23.4
  Percentage of aphids Walking (off disc): 22.3%
[3]; diluted 1:200 in water, after 24 hours, n = 250, Table 16, control 24.8
  Percentage of aphids Dead: 32.8%
[3]; diluted 1:200 in water, after 24 hours, n = 250, Table 16, control 51.7
  Percentage of aphids Feeding: 44.5%

## OC/C=C/c1ccccc1 [Cinnamic Alcohol]
[1]
  Heart beat/30 sec 30 min after treatment: 54 ± 3 beat/30 sec
  Heart beat/30 sec before treatment: 52 ± 2 beat/30 sec

## CC(C)=CCCC(C)CCO (stereo not shown) [Citronellol]
[4]; [6]
  dpm 3H-OA/500 μg protein: 999 ± 65 dpm 3H-OA/500 μg protein
[4]; [7]
  dpm 3H-OA/500 μg protein: 557 ± 43 dpm 3H-OA/500 μg protein

## CCOc1cc(C=O)ccc1O [Ethyl vanillin]
[4]; [8]
  cpm 3H-OA/500 μg protein: 1723 ± 119 cpm 3H-OA/500 μg protein
[4]
  classification with respect to octopamine receptor sites (OAR): Non-OAR Specific Toxicants

## CC12CCC(CC1)C(C)(C)O2 [Eucaluptol, Eucalyptol]
American cockroach [5]; 500 μg/roach injected into thoracic and abdominal segments, 24 hr.
  Mortality: 0/10
American cockroach [5]; 500 μg/roach injected, 48 hr.
  Mortality: 0/10
American cockroach [5]; 500 μg/roach injected, 72 hr., control 1/10
  Mortality: 0/10
[4]; 500 ng/ml
  agonist/antagonist note to 3H-OA binding: antagonist
[4]; [6]
  dpm 3H-OA/500 μg protein: 865 ± 45 dpm 3H-OA/500 μg protein
[4]; [8]
  cpm 3H-OA/500 μg protein: 1637 ± 095 cpm 3H-OA/500 μg protein
[4]; [7]
  dpm 3H-OA/500 μg protein: 653 ± 36 dpm 3H-OA/500 μg protein
[4]
  classification with respect to octopamine receptor sites (OAR): Non-OAR Specific Toxicants

## COc1ccccc1O [Guaiacol]
[4]; [8]
  cpm 3H-OA/500 μg protein: 1787 ± 151 cpm 3H-OA/500 μg protein
[4]
  classification with respect to octopamine receptor sites (OAR): Non-OAR Specific Toxicants

## COC(=O)c1ccccc1O [Methyl salicylate]
American cockroach [2]; Periplaneta americana, 24 h
  mortality at 10 mg: 0%
  mortality at 20 mg: 20%
  mortality at 30 mg: 40%
  mortality at 40 mg: 80%
  mortality at 50 mg: 100%
American cockroach [2]; in vivo
  pesticidal activity against cockroaches, in words: high pesticidal activity
[4]
  activity/binding at octopamine receptor sites, in words: antagonists which are most strongly bound
  classification with respect to octopamine receptor sites (OAR): extremely high OAR antagonists
[4]; 500 ng/ml
  agonist/antagonist note to 3H-OA binding: antagonist
[4]; [8]
  cpm 3H-OA/500 μg protein: 0084 ± 009 cpm 3H-OA/500 μg protein

## O=Cc1ccc2c(c1)OCO2 [Piperonal]
[4]; [8]
  cpm 3H-OA/500 μg protein: 1680 ± 131 cpm 3H-OA/500 μg protein
[4]
  classification with respect to octopamine receptor sites (OAR): Non-OAR Specific Toxicants

## CC(=O)OCc1ccc2c(c1)OCO2 [Piperonyl acetate]
[4]; 500 ng/ml
  agonist/antagonist note to 3H-OA binding: antagonist
[4]; [8]
  cpm 3H-OA/500 μg protein: 1090 ± 092 cpm 3H-OA/500 μg protein
[4]; [9]
  cpm 3H-OA/500 μg protein: 519 ± 52 cpm 3H-OA/500 μg protein

## OCc1ccc2c(c1)OCO2 [Piperonyl alcohol]
[4]; 500 ng/ml
  agonist/antagonist note to 3H-OA binding: antagonist
[4]; [8]
  cpm 3H-OA/500 μg protein: 1124 ± 083 cpm 3H-OA/500 μg protein
[4]; [9]
  cpm 3H-OA/500 μg protein: 862 ± 61 cpm 3H-OA/500 μg protein
